Laboratory results taken from patent US10723695B2, “Microbiocidal phenylamidine derivatives” (SYNGENTA PARTICIPATIONS AG, priority 2015, dated 2020).

Assays:
[1] = system: Blumeria graminis f. sp. tritici (Erysiphe graminis f. sp. tritici); assay: Blumeria graminis f. sp. tritici / wheat / leaf disc preventative (powdery mildew on wheat); assay type: in vivo; conditions: foliar, wheat leaf segments cv. Kanzler, compared to untreated control leaf disks, read-out: disease control
Description: Blumeria graminis f. sp. tritici (Erysiphe graminis f. sp. tritici)/Wheat/Leaf Disc Preventative (Powdery Mildew on Wheat) Wheat leaf segments cv. Kanzler were placed on agar in a multiwell plate (24-well format) and sprayed with the formulated test compound diluted in water. The leaf disks were inoculated by shaking powdery mildew infected plants above the test plates 1 day after application.

Phakopsora pachyrhizi = Phakopsora pachyrhizi / soybean / leaf disk preventative (soybean rust); assay type: in vivo; conditions: foliar, soybean leaf disks, compared to untreated control leaf disks, read-out: disease control
Description: Phakopsora pachyrhizi/Soybean/Leaf Disk Preventative (Soybean Rust) Four-week old soybean plants are sprayed in a spray chamber with the formulated test compound diluted in water. Leaf disks are cut from treated plants and placed on agar into 24-well plates one day after application. Leaf disks are inoculated by spraying them with a spore suspension on their lower leaf surface. After an incubation period in a climate cabinet of 24-36 hours in darkness at 20° C. and 75% rh, the leaf disks are then kept at 20° C. with 12 h light/day and 75% rh. The percentage leaf disk area covered by disease is assessed when an appropriate level of disease appears on untreated check plants (12-14 days after application).

[2] = system: Puccinia recondita f. sp. tritici; assay: Puccinia recondita f. sp. tritici / wheat / leaf disc curative (brown rust); assay type: in vivo; conditions: foliar, 24 h, wheat leaf segments cv. Kanzler, curative (applied 1 day after inoculation), compared to untreated control leaf disks, read-out: disease control
Description: Puccinia recondita f. sp. tritici/Wheat/Leaf Disc Curative (Brown Rust) Wheat leaf segments cv. Kanzler are placed on agar in multiwell plates (24-well format). The leaf segments are inoculated with a spore suspension of the fungus. Plates were stored in darkness at 19° C. and 75% rh. The formulated test compound diluted in water was applied 1 day after inoculation.

[3] = system: Puccinia recondita f. sp. tritici; assay: Puccinia recondita f. sp. tritici / wheat / leaf disc preventative (brown rust); assay type: in vivo; conditions: foliar, wheat leaf segments cv. Kanzler, compared to untreated control leaf disks, read-out: disease control
Description: Puccinia recondita f. sp. tritici/Wheat/Leaf Disc Preventative (Brown Rust) Wheat leaf segments cv. Kanzler were placed on agar in multiwell plates (24-well format) and sprayed with the formulated test compound diluted in water. The leaf disks were inoculated with a spore suspension of the fungus 1 day after application. The inoculated leaf segments were incubated at 19° C. and 75% rh under a light regime of 12 h light/12 h darkness in a climate cabinet and the activity of a compound was assessed as percent disease control compared to untreated when an appropriate level of disease damage appears in untreated check leaf segments (7-9 days after application).

Compound	melting point [°C]	pest or weed control at 200 ppm [1] [%]	pest or weed control at 200 ppm (Phakopsora pachyrhizi) [%]	pest or weed control at 200 ppm [2] [%]	pest or weed control at 200 ppm [3] [%]
CCN(C)/C=N/c1cc(OC)c(C(O)(Cc2cccc(OC)n2)C(F)(F)F)cc1C (stereo not shown) [Compound E1.100]	92 to 95	≥ 80	≥ 80	≥ 80	≥ 80
CCN(C)/C=N/c1cc(OC)c(C(O)(c2ccc(Br)cc2)C(F)(F)F)cc1C (stereo not shown) [Compound E1.025]	127 to 129	≥ 80		≥ 80	≥ 80
CCN(C)/C=N/c1cc(OC)c(C(O)(c2ccc(F)cc2F)C(F)(F)F)cc1C (stereo not shown) [Compound E1.018]	113 to 114	≥ 80	≥ 80	≥ 80	≥ 80
CCN(C)/C=N/c1cc(OC)c(C(O)(c2ccc(OC)nc2)C(F)(F)F)cc1C (stereo not shown) [Compound E1.107]	100 to 102	≥ 80		≥ 80	≥ 80
CCN(C)/C=N/c1cc(OC)c(C(O)(c2ccc(Cl)cc2Cl)C(F)(F)F)cc1C (stereo not shown) [Compound E1.017]	119 to 121	≥ 80	≥ 80	≥ 80	≥ 80
CCN(C)/C=N/c1cc(OC)c(C(O)(c2cccc(F)c2)C(F)(F)F)cc1C (stereo not shown) [Compound E1.029]	130 to 132	≥ 80	≥ 80	≥ 80	≥ 80
CCN(C)/C=N/c1cc(OC)c(C(O)(c2ccccc2C)C(F)(F)F)cc1C (stereo not shown) [Compound E1.024]	115 to 117	≥ 80	≥ 80	≥ 80	≥ 80
CCN(C)/C=N/c1cc(OC)c(C(O)(c2ccccc2)C(F)(F)F)cc1C (stereo not shown) [Compound E1.006]	160 to 162	≥ 80	≥ 80	≥ 80	≥ 80
CCN(C)/C=N/c1cc(OC)c(C(O)(Cc2cc(C)nc(OC)n2)C(F)(F)F)cc1C (stereo not shown) [Compound E1.094]	117 to 119	≥ 80		≥ 80	≥ 80
CCN(C)/C=N/c1cc(OC)c(C(O)(c2cccc(C(F)(F)F)c2)C(F)(F)F)cc1C (stereo not shown) [Compound E1.010]	121 to 123	≥ 80	≥ 80	≥ 80	≥ 80
CCN(C)/C=N/c1cc(OC)c(C(O)(c2ccccc2Br)C(F)(F)F)cc1C (stereo not shown) [Compound E1.035]	114 to 116	≥ 80	≥ 80	≥ 80	≥ 80
CCN(C)/C=N/c1cc(OC)c(C(O)(c2ccccc2)C(C)C)cc1C (stereo not shown) [Compound E1.124]	82 to 84		≥ 80	≥ 80	≥ 80
CCN(C)/C=N/c1cc(OC)c(C(O)(c2ccc(SC(F)(F)F)cc2)C(F)(F)F)cc1C (stereo not shown) [Compound E1.037]	64 to 66	≥ 80	≥ 80	≥ 80	
CCOc1cc(/N=C/N(C)CC)c(C)cc1C(O)(c1ccccc1)C(F)(F)F (stereo not shown) [Compound E1.002]	148 to 151		≥ 80	≥ 80	≥ 80
CCN(C)/C=N/c1cc(OC)c(C(O)(c2cccc(OC(F)F)c2)C(F)(F)F)cc1C (stereo not shown) [Compound E1.044]	119 to 121	≥ 80	≥ 80	≥ 80	
CCN(C)/C=N/c1cc(OC)c(C(O)(c2ccc(Cl)cc2)C(F)(F)F)cc1C (stereo not shown) [Compound E1.021]	134 to 135	≥ 80		≥ 80	≥ 80
CCN(C)/C=N/c1cc(OC)c(C(O)(c2ccc(OC(F)F)cc2)C(F)(F)F)cc1C (stereo not shown) [Compound E1.045]	85 to 87	≥ 80	≥ 80	≥ 80	
CCN(C)/C=N/c1cc(OC)c(C(O)(c2ccccc2)C(C)(C)C)cc1C (stereo not shown) [Compound E1.125]	90 to 92		≥ 80	≥ 80	≥ 80
CCN(C)/C=N/c1cc(OC)c(C(O)(c2ccccc2SC)C(F)(F)F)cc1C (stereo not shown) [Compound E1.032]	104 to 106	≥ 80		≥ 80	≥ 80
CCN(C)/C=N/c1cc(OC)c(C(O)(c2ccc(C#N)cc2)C(F)(F)F)cc1C (stereo not shown) [Compound E1.040]	167 to 169	≥ 80		≥ 80	

Continued, in another order:

melting point [°C]	Compound	pest or weed control at 200 ppm [1] [%]	pest or weed control at 200 ppm (Phakopsora pachyrhizi) [%]	pest or weed control at 200 ppm [2] [%]	pest or weed control at 200 ppm [3] [%]
63 to 65	CCN(C)/C=N/c1cc(OC)c(C(O)(Cc2ccc(Cl)cc2)C(F)(F)F)cc1C (stereo not shown) [Compound E1.090]	≥ 80	≥ 80	≥ 80	
123 to 127	C=CCC(O)(c1cc(C)c(/N=C/N(C)CC)cc1OC)C(F)(F)F (stereo not shown) [Compound E1.071]	≥ 80	≥ 80	≥ 80	≥ 80
137 to 140	CCN(C)/C=N/c1cc(OC)c(C(O)(c2cc(F)ccc2F)C(F)(F)F)cc1C (stereo not shown) [Compound E1.031]	≥ 80	≥ 80	≥ 80	≥ 80
124 to 126	CCN(C)/C=N/c1cc(OC)c(C(O)(c2ccc(C(F)(F)F)cc2)C(F)(F)F)cc1C (stereo not shown) [Compound E1.019]	≥ 80		≥ 80	≥ 80
90 to 93	COc1cc(/N=C/N(C)C(C)C)c(C)cc1C(O)(C1CC1)C(F)(F)F (stereo not shown) [Compound E1.064]	≥ 80	≥ 80	≥ 80	≥ 80
110.5 to 111.7	COc1cc(/N=C/N(C)C(C)C)c(C)cc1[C@@](O)(c1ccccc1)C(F)(F)F [Compound E1.026]	≥ 80	≥ 80	≥ 80	≥ 80
110 to 111	COc1cc(/N=C/N(C)C(C)C)c(C)cc1C(O)(c1ccccc1)C(F)(F)F (stereo not shown) [Compound E1.009]			≥ 80	≥ 80
97 to 100	CCN(C)/C=N/c1cc(OC)c(C(O)(c2ccccc2Cl)C(F)(F)F)cc1C (stereo not shown) [Compound E1.033]	≥ 80	≥ 80	≥ 80	≥ 80
118 to 120	CCOC(=O)c1ccc(C(O)(c2cc(C)c(/N=C/N(C)CC)cc2OC)C(F)(F)F)cc1 (stereo not shown) [Compound E1.039]	≥ 80		≥ 80	
112 to 114	CCN(C)/C=N/c1cc(OC)c(C(O)(c2ccc(C)cc2)C(F)(F)F)cc1C (stereo not shown) [Compound E1.020]	≥ 80	≥ 80	≥ 80	≥ 80
177 to 180	CCN(C)/C=N/c1cc(OC)c(C(O)(c2ccccc2S(C)(=O)=O)C(F)(F)F)cc1C (stereo not shown) [Compound E1.036]			≥ 80	≥ 80
88 to 90	CCN(C)/C=N/c1cc(OC)c(C(O)(C#Cc2ccccc2)C(F)(F)F)cc1C (stereo not shown) [Compound E1.073]				≥ 80
89 to 91	CCN(C)/C=N/c1cc(OC)c(C(O)(c2ccc(SC)cc2)C(F)(F)F)cc1C (stereo not shown) [Compound E1.041]	≥ 80		≥ 80	
